For series [1], the target named is T1, CYP2B6 (Homo sapiens, UniProt P20813).
T1 construct: HLMs (1 mg protein·mL^-1); tissue BioIVT; host or cells: pooled human liver microsomes
T1 sequence (P20813 1-491): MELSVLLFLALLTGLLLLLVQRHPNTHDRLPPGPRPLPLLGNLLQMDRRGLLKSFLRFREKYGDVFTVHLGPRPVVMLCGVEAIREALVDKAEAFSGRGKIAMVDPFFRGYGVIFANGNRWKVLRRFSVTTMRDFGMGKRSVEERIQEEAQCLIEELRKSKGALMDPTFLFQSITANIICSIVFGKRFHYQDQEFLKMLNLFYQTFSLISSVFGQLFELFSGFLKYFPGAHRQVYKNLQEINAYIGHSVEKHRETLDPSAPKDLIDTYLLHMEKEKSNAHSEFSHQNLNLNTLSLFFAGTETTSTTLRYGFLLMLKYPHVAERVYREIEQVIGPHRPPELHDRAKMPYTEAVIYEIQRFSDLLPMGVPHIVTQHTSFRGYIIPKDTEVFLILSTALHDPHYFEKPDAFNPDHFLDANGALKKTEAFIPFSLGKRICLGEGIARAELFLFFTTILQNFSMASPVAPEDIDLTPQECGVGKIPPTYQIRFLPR
The series is described as follows: Metabolic stability in HLMs with or without specific CYP inhibitor (ticlopidine 20 µM). The following applies: HLMs 1 mg protein/mL, substrate 1 μM. In kind it is in vitro ADME. The procedure: Before starting the experiments, the HLMs were thawed gently on ice. Metabolic stability incubations were performed at 37 °C. […] The incubation process started with the addition of NADPH (1 mM final concentration) after a 5-minute preincubation period. The chemical inhibitors were as follows: a-naphthoflavone (2 µM) for CYP1A2, ticlopidine (20 µM) for 2B6, quercetin (20 µM) for CYP2C8, sulfaphenazole (20 µM) for CYP2C9, ticlopidine (200 µM) for CYP2C19, quinidine (20 µM) for CYP2D6, and ketoconazole (20 µM) for CYP3A [9]. Aliquots were maintained in acetonitrile containing internal standard (IS) at various time points, such as 0 min, 5 min, 10 min, 20 min, 30 min, and 60 min. All incubations were performed in triplicate, and the concentration in the supernatant was determined by liquid chromatography-tandem mass spectrometry (LC-MS/MS).
(§1) The elimination rate constant k (min^-1) was obtained by linear regression from the natural logarithm of the […] of the parent drug and the incubation time. The inhibition rate was calculated using equation 1 [10]: […]

The subject of series [2] is CYP2C8. The series is described as follows: Metabolic stability in HLMs with or without specific CYP inhibitor (quercetin). Format: in vitro ADME, human. As to conditions: HLMs 1 mg protein/mL, substrate 1 μM, quercetin 20 µM. The procedure:
Before starting the experiments, the HLMs were thawed gently on ice. Metabolic stability incubations were performed at 37 °C. The incubations contained 100 mM phosphate buffer saline (PBS, pH 7.4), HLMs (1 mg protein·mL^-1), dimethyl sulfoxide (DMSO, blank control) or a selective CYP inhibitor, and BPI-460372 or positive control substrates (final incubation concentration, 1 μM). The incubation process started with the addition of NADPH (1 mM final concentration) after a 5-minute preincubation period. The chemical inhibitors were as follows: a-naphthoflavone (2 µM) for CYP1A2, ticlopidine (20 µM) for 2B6, quercetin (20 µM) for CYP2C8, sulfaphenazole (20 µM) for CYP2C9, ticlopidine (200 µM) for CYP2C19, quinidine (20 µM) for CYP2D6, and ketoconazole (20 µM) for CYP3A [9]. Aliquots were maintained in acetonitrile containing internal standard (IS) at various time points, such as 0 min, 5 min, 10 min, 20 min, 30 min, and 60 min. All incubations were performed in triplicate, and the concentration in the supernatant was determined by liquid chromatography-tandem mass spectrometry (LC-MS/MS).
as §1

Series [3] has as its system dog hepatocytes. The series is described as follows: Metabolism and metabolite formation in hepatocytes. The following applies: beagle dog hepatocytes, 10 µM BPI-460372, 4 h incubation. Format: in vitro ADME, beagle dog. From the text:
All the samples were duplicates.

Series [4] is described as follows: Metabolite identification in rat plasma, urine, feces and bile. In kind it is in vivo, SD rats. In outline: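 Pooled sex-specific samples from SD rats: plasma after 12 mg/kg, urine, feces and bile (collected over 0-48 h) after 6 mg/kg; beagle dog plasma after 8 mg/kg. Acetonitrile extraction (urine centrifuged only), dried, redissolved in acetonitrile/water 20:80, analysed by UHPLC-Orbitrap-HRMS.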

Series [5] can be described thus: Stability in plasma. Format: in vitro ADME. The following applies: rat plasma, 37°C, 4 h.
Series [6] can be described thus: Stability in plasma. In kind it is in vitro ADME. The following applies: dog plasma, 37°C, 4 h.
Series [7] is described as follows: 4-week toxicity study. In kind it is in vivo. As to conditions: rats.
Series [8] is described as follows: In vivo clearance. The following applies: monkeys.
The subject of series [9] is TEAD proteins. Set-up: method as in doi:10.1158/1538-7445.AM2023-501. The following applies: cited from earlier work.
In series [10] the test system is cysteine S-conjugate β-lyase. Nature of the series: Effect of cysteine S-conjugate β-lyase inhibitor AOAA on the metabolism of BPI-460372 (rat urine). As to conditions: 20 mg/kg BPI-460372 + 100 mg/kg AOAA, once daily 21 days, urine 0-48 h on day 21.
Protocol: To investigate the effect of cysteine S-conjugate β-lyase on the metabolism of BPI-460372, SD rats were treated with 20 mg/kg BPI-460372 alone (n=3, male) or 20 mg/kg BPI-460372 coadministration with 100 mg/kg cysteine S-conjugate β-lyase inhibitor AOAA (n=3, male), once daily for 21 consecutive days. On day 21, urine samples were collected at 0-8, 8-24 and 24-48 h. The same percentage of urine samples from each rat was taken at these three time intervals and mixed. The samples were analyzed by LC-MS/MS and then semi-quantified using the peak area ratio of analyte versus IS.
Setting [11] is: oral 6 mg/kg BPI-460372, average of male and female pooled samples.

Consider `C=C(F)C(=O)N1CC(n2c(=O)n(-c3ccc(C(F)(F)F)cc3)c3nccnc32)C1` [BPI-460372], for which the “Inhibition Rate” value in [1] is on record as -11.5%. Also, the “Inhibition Rate” value in [2] stood at 53.9%. Besides, in series [3], the “UV (314 nm) Peak Areas Relative Abundance” value is recorded as 48.28%. Moreover, in [4] (setting [11]), the “Relative abundance of MS peak areas, Rat Bile 0-48 h” value was 0.67%; the “Relative abundance of MS peak areas, Rat Feces 0-48 h” value was 16.95%; the “Relative abundance of MS peak areas, Rat Urine 0-48 h” value was 0.12%. Besides, the “Relative abundance of MS peak areas, Rat Plasma 0-24 h” value in series [4] (oral 12 mg/kg BPI-460372, average of male and female pooled samples) is on record as 75.36%. Moreover, the Stability in plasma entry in series [5] is “stable”. In [6], the Stability in plasma entry is “stable”. Besides, the Main target organs entry in [7] is “kidney”. In series [8], the Clearance in vivo entry is “low clearance”. The “Covalent binding to TEAD1/3/4” value in [9] (2-fluoro acrylamide warhead) is on record as “covalently bind to the Cys-368 residue”. Moreover, the Off-target covalent binding entry in series [9] is reported as “without significant off-target covalent binding affinity”. In addition, the “Area ratio in rat urine, mean (%CV)” value in series [10] is on record as 1.48 (69).
